A short description of this series: Solubility of bevirimat and bevirimat dimeglumine in single vehicles. The settings on record: in 100% water, 100% saline, 100% dextrose, 100% PEG 400, and 25% Poloxamer 188.

Structures can show the parent of a compound that is named as a salt.

Consider `C=C(C)[C@@H]1CC[C@]2(C(=O)O)CC[C@]3(C)[C@H](CC[C@@H]4[C@@]5(C)CC[C@H](OC(=O)CC(C)(C)C(=O)O)C(C)(C)[C@@H]5CC[C@]43C)[C@@H]12` [Bevirimat dimeglumine, di-N-methylglucamine salt of 3-O-(3′,3′-dimethylsuccinyl)betulinic acid], for which the “solubility (in words)” value was “limited solubility”.

These data come from US20100216751A1 (priority 2007, published 2010).
